Results: US20110130397A1, “PYRROLINONE COMPOUNDS AS INHIBITORS OF BACTERIAL PEPTIDYL TRNA HYDROLASE AND USES THEREOF” (priority 2006, published 2011)

SMILES	melting point [°C]
CCN(CC)c1ccc(C2C(C(=O)c3ccc(C)o3)=C(O)C(=O)N2c2nc3c(Cl)cccc3s2)cc1 (centres unmarked) [Compound 616]	223 to 226
O=C(C1=C(O)C(=O)N(c2nc3c(Cl)cccc3s2)C1c1ccc(F)cc1)C1CC2C=CC1C2 (centres unmarked) [Compound 570]	216 to 218
CCOc1ccc2nc(N3C(=O)C(O)=C(C(=O)c4ccc(C)o4)C3c3ccc4c(c3)OCO4)sc2c1 (centres unmarked) [Compound 251]	230 to 231
O=C(C1=C(O)C(=O)N(c2nc3c(Cl)cccc3s2)C1c1ccc(F)cc1)C1CC1 (centres unmarked) [Compound 457]	218 to 219
CCN(CC)c1ccc(C2C(C(=O)c3ccc(C)o3)=C(O)C(=O)N2c2nc3ccc(F)cc3s2)cc1 (centres unmarked) [Compound 615]	209 to 212
COc1ccccc1CC(=O)C1=C(O)C(=O)N(c2nc3ccc(Cl)cc3s2)C1c1ccc(F)cc1 (centres unmarked) [Compound 484]	253 to 255
Cc1ccc(C(=O)C2=C(O)C(=O)N(c3ncnc4[nH]cnc34)C2c2cccc([N+](=O)[O-])c2)o1 (centres unmarked) [Compound 224]	266 to 267
COc1cccc(C2C(C(=O)c3ccc(C)o3)=C(O)C(=O)N2c2nc3ccc(Cl)cc3s2)c1 (centres unmarked) [Compound 602]	229 to 230
Cc1ccc(C(=O)C2=C(O)C(=O)N(c3nc4ccc(Cl)cc4s3)C2c2ccc3ccccc3c2)o1 (centres unmarked) [Compound 599]	255 to 257
Cc1ccc(C(=O)C2=C(O)C(=O)N(c3nc4ccc(Cl)cc4s3)C2c2ccc(OCc3ccccc3)cc2)o1 (centres unmarked) [Compound 470]	196 to 197
CC(=O)c1sc(N2C(=O)C(O)=C(C(=O)c3ccc(C)o3)C2c2ccccc2F)nc1C (centres unmarked) [Compound 159]	244 to 245
CCOc1ccc2nc(N3C(=O)C(O)=C(C(=O)c4ccc(C)o4)C3c3cccc(F)c3)sc2c1 (centres unmarked) [Compound 222]	248 to 249
CC(=O)N1CCCC1C(=O)C1=C(O)C(=O)N(c2nc3ccc(Cl)cc3s2)C1c1ccc(F)cc1 (centres unmarked) [Compound 646, 4-(1-Acetylpyrrolidine-2-carbonyl)-1-(6-chlorobenzo[d]thiazol-2-yl)-5-(4-fluorophenyl)-3-hydroxy-1H-pyrrol-2(5H)-one]	268 to 272
Cc1ccc(C(=O)C2=C(O)C(=O)N(c3nc4c(O)ncnc4[nH]3)C2c2ccccc2F)o1 (centres unmarked) [Compound 162]	> 350
CCOc1ccc2nc(N3C(=O)C(O)=C(C(=O)c4ccc(C)o4)C3c3cccc(C(=O)OC)c3)sc2c1 (centres unmarked) [Compound 255]	228 to 229
Cc1ccc(C(=O)C2=C(O)C(=O)N(Cc3nn[nH]n3)C2)o1 [Compound 178]	233 to 234
CCc1ccc2nc(N3C(=O)C(O)=C(C(=O)c4ccc(C)o4)C3c3ccccc3)sc2c1 (centres unmarked) [Compound 130]	204 to 206
Cc1ccc(C(=O)C2=C(O)C(=O)N(c3nc4c(Cl)cccc4s3)C2c2ccc3ccccc3c2)o1 (centres unmarked) [Compound 601]	261 to 262
COCC(=O)C1=C(O)C(=O)N(c2nc3ccc(Cl)cc3s2)C1c1ccccc1F (centres unmarked) [Compound 441]	253 to 254
O=C(COc1ccccc1)C1=C(O)C(=O)N(c2nc3ccc(Cl)cc3s2)C1c1ccccc1F (centres unmarked) [Compound 446]	218 to 219
CCOC1=C(C(=O)c2ccc(C)o2)C(c2ccc(O)cc2)N(c2nc3ccccc3n2C)C1=O (centres unmarked) [Compound 431]	254 to 255
Cc1ccc(C(=O)C2=C(O)C(=O)N(c3nc4c(Cl)cccc4s3)C2c2ccc(-c3ccccc3)cc2)o1 (centres unmarked) [Compound 466]	222 to 223
O=C(C1=C(O)C(=O)N(c2nc3ccc(F)cc3s2)C1c1ccccc1F)C1CC1 (centres unmarked) [Compound 454]	234 to 235
CCOc1ccc2nc(N3C(=O)C(O)=C(C(=O)c4ccc(C)o4)C3c3ccccc3F)sc2c1 (centres unmarked) [Compound 183]	251 to 252

SMILES	melting point [°C]
CC(C)(C)C(=O)C1=C(O)C(=O)N(c2nc3ccc(F)cc3s2)C1c1ccc(F)cc1 (centres unmarked) [Compound 424]	232 to 233
COCC(=O)C1=C(O)C(=O)N(c2nc3c(Cl)cccc3s2)C1c1ccccc1F (centres unmarked) [Compound 445]	231 to 233
Cc1ccc(C(=O)C2=C(O)C(=O)N(c3nc4c(Cl)cccc4s3)C2c2ccc(C#N)cc2)o1 (centres unmarked) [Compound 622]	273 to 274
CCOc1ccc2nc(N3C(=O)C(O)=C(C(=O)c4ccc(C)o4)C3c3ccc4ccccc4n3)sc2c1 (centres unmarked) [Compound 252]	260 to 261
O=C(COc1ccccc1Cl)C1=C(O)C(=O)N(c2nc3c(Cl)cccc3s2)C1c1ccc(F)cc1 (centres unmarked) [Compound 460]	143 to 145
CC(=O)N1CCCC1C(=O)C1=C(O)C(=O)N(c2nc3ccc(F)cc3s2)C1c1ccc(Cl)cc1 (centres unmarked) [Compound 648]	293 to 297
Cc1ccc(C(=O)C2=C(O)C(=O)N(c3nc4ccc(Cl)cc4s3)C2c2ccc(C#N)cc2)o1 (centres unmarked) [Compound 620]	259 to 260
CCOC(=O)CCC(=O)C1=C(O)C(=O)N(c2nc3ccc(Cl)cc3s2)C1c1ccc(Cl)cc1 (centres unmarked) [Compound 495]	244 to 245
Cc1ccc(C(=O)C2=C(O)C(=O)N(c3nc4c(Cl)cccc4s3)C2c2cccc(F)c2F)o1 (centres unmarked) [Compound 625]	274 to 275
Cc1ccc(C(=O)C2=C(O)C(=O)N(c3nc4ccc(F)cc4s3)C2c2ccc(OCCCN(C)C)cc2)o1 (centres unmarked) [Compound 480]	209 to 211
CCc1ccc2nc(N3C(=O)C(O)=C(C(=O)c4ccc(C)o4)C3c3ccc(F)cc3)sc2c1 (centres unmarked) [Compound 131]	222 to 225
Cc1ccc(C(=O)C2=C(O)C(=O)N(c3nc4cccnc4s3)C2c2ccc(O)c(C(=O)O)c2)o1 (centres unmarked) [Compound 248]	243 to 245
COCC(=O)C1=C(O)C(=O)N(c2nc3ccc(F)cc3s2)C1c1ccccc1F (centres unmarked) [Compound 443]	228 to 229
Cc1ccc(C(=O)C2=C(O)C(=O)N(Cc3cccs3)C2c2ccc(F)cc2)o1 (centres unmarked) [Compound 505]	225 to 226
COc1ccccc1CC(=O)C1=C(O)C(=O)N(c2nc3ccc(Cl)cc3s2)C1c1ccccc1F (centres unmarked) [Compound 481]	186 to 188
CCN(CC)c1ccc(C2C(C(=O)c3ccc(C)o3)=C(O)C(=O)N2c2nc3ccc(Cl)cc3s2)cc1 (centres unmarked) [Compound 614]	207 to 210
CCOc1ccc2nc(N3C(=O)C(O)=C(C(=O)c4ccc(C)o4)C3c3ccccc3)sc2c1 (centres unmarked) [Compound 182]	247 to 248
COc1ccccc1CC(=O)C1=C(O)C(=O)N(c2nc3c(Cl)cccc3s2)C1c1ccc(F)cc1 (centres unmarked) [Compound 486]	243 to 245
Cc1ccc(C(=O)C2=C(O)C(=O)N(c3nc4ccc(Cl)cc4s3)C2c2ccc(OCCO)cc2)o1 (centres unmarked) [Compound 477]	209 to 210
CC(=O)C1=C(O)C(=O)N(c2nc3ccc(Cl)cc3s2)C1c1ccccc1F (centres unmarked) [Compound 429]	255 to 256
O=C(C1=C(O)C(=O)N(c2nc3c(Cl)cccc3s2)C1c1ccc(F)cc1)C1CCC1 (centres unmarked) [Compound 574]	232 to 233
O=C(COc1ccccc1)C1=C(O)C(=O)N(c2nc3c(Cl)cccc3s2)C1c1ccc(F)cc1 (centres unmarked) [Compound 450]	204 to 206
CC(=O)C1=C(O)C(=O)N(c2nc3c(Cl)cccc3s2)C1c1ccc(F)cc1 (centres unmarked) [Compound 426]	231 to 232
